Source: patent US20180291070A1, “PEPTIDES, AND USES THEREOF” (priority 2015, published 2018)
Several values for one entry are separate records, joined by “and”; a condition that tells them apart may be missing. Identical values can stand only once.

test system: TNF-α; experiment: TNF-α secretion by LPS-stimulated THP-1 differentiated macrophages (Biolegend ELISA); type: cell-based, human; conditions: THP-1 cells; 100, 10 or 1 ng/ml synthetic peptide 24 h, then 10 ng/ml LPS 5 h; vs untreated control
Procedure: TNF-α is secreted by macrophages in response to stimulation by endotoxins such as lipopolysaccharides (LPS). TNF-α is thought to be involved in systemic inflammation and dysregulation of TNF-α production is thought to be involved in many diseases. The Biolegend assay is a sandwich ELISA kit that is designed for the accurate quantitation of human TNF-α from cell culture supernatant, serum or plasma.
THP-1 monocytes were seeded in a 96 well plate at 10,000 cells per well in RPMI containing 10% fetal calf serum (FCS), 1% Pen/strep, 1% L-glutamine, 100 nM PMA and allowed to differentiated for 72 h prior to experimentation.
Following differentiation the cells were incubated with 100 ng/ml, 10 ng/ml or 1 ng/ml synthetic peptide for 24 h respectively.
Following treatment the cells were stimulated with 10 ng/ml LPS for 5 h and the quantity of TNF-α in the supernatant determined using the Biolegend assay ELISA kit.
Results were calculated as a percentage of the untreated control. An increase in optical density reading indicates greater quantity of TNF-α release into cell culture supernatant.
All experiments were prepared in duplicate on three plates (6 wells/conditions). Significance was calculated using Students t-test (*p<0.05 compared to control, **p<0.01 compared to control, *** p<0.001 compared to control).

| Substance | TNF-α DECREASE [%] |
| --- | --- |
| 75 (IYVTDLNNGANQLDPRQRD) [compound 75] | 11 |
| 76 (VTNLNSQNFPILNLVQMSAVK) [compound 76] | 9 |
| 85 (SIFRALPTDVLANAYRISREE) [compound 85] | 80 |
| 91 (TVFNGELR) [compound 91] | 80 |
| 92 (QVQVVNNNGKTVF) [compound 92] | 13 |
| 93 (YIIQGRGITGPTF) [compound 93] | 14 |
| 105 (LAGNKRNPQAYR) [compound 105] | 9 |
| 144 (AGILEADR) [compound 144] | 16 |
| 320 (KRHGEWRPSYEKEEDEE) [compound 320] | 13 |
| 339 (ASSNLNLLGF) [compound 339] | 26 |
| 341 (RGDTIKLPAGTTSYLVNQDDEE) [compound 341] | 21 |
| 344 (ARLSPGDVVIIPAGHPVAIT) [compound 344] | 20 |
| 345 (RGDTIKLPAGTTSYLVNQDDE) [compound 345] | 23 |
| 346 (ARLSPGDVVIIPAGHPVA) [compound 346] | 18 |
| 349 (LSPGDVVIIPAGHPVAITASSNLNLLGFGINAENNER) [compound 349] | 6 |
| 350 (ARLSPGDVVIIPAGHPVAITAS) [compound 350] | 80 |
| 351 (LSPGDVVIIPAGHPVAITASSNL) [compound 351] | 18 |
| 352 (ARLSPGDVVIIPAGHPVAITA) [compound 352] | 23 |
| 353 (HGPVEMPYTLLYPSSK) [compound 353] | 20 |

same assay, conditions: THP-1 differentiated macrophages treated 24 hrs. prior to LPS stimulation

| Substance | TNF-α secretion reduced vs. untreated cells [%] |
| --- | --- |
| QSFLLSGNQ [E_1_788] | 80 |

test system: Human Dermal Fibroblasts (HDF); experiment: BrdU Cell Proliferation Assay; type: cell-based; conditions: 5, 0.5 or 0.05 μg/ml synthetic peptide 24 h
Procedure: BrDu is incorporated into newly synthesised DNA strands of actively proliferating cells. Following partial denaturation of double stranded DNA, Brdu is detected immunochemically allowing the assessment of the population of cells which are synthesizing DNA. Human Dermal Fibroblasts (HDF—Sigma 10605a) were seeded in a 96 well plate at 10,000 cells per well in DMEM containing 10% fetal calf serum (FCS), 1% Pen/strep, 1% L-glutamine and allowed to adhere for 24 h. Following the initial 24 h incubation the cells were incubated with 5 μg/ml, 0.5 μg/ml or 0.05 μg/ml synthetic peptide for 24 h respectively. After 18 h incubation with synthetic peptides 20 μl BrDu reagent was added to each well. At 24 h incubation the cell were fixed and the amount of […] was measured using the BrdU Cell Proliferation Assay, all steps were carried out according to the manufacturer's instructions. Results were calculated as a percentage of the untreated control. An increase in optical density reading indicates greatER incorporation of BrDu and increase cell proliferation.

| Substance | INCREASE IN PROLIFERATION |
| --- | --- |
| 73 (SIFRALPNDVLANAYRISREE) [compound 73] | 16% |
| 74 (SIFRALPND) [compound 74] | 29% |
| 83 (SYQDVYNVAESS) [compound 83] | 32% |
| 84 (ISREEAQR) [compound 84] | 20% |
| 85 (SIFRALPTDVLANAYRISREE) [compound 85] | 35% |
| 93 (YIIQGRGITGPTF) [compound 93] | 26% |
| 97 (GEIVRVER) [compound 97] | 26% |
| 98 (RGLSLLQPYASLQ) [compound 98] | 49% |
| 105 (LAGNKRNPQAYR) [compound 105] | 40% |
| 112 (GEELGAFTPR) [compound 112] | 15% |
| 114 (SIEQHSGQNIFSGFNNELLSEALGVNALVAK) [compound 114] | 119% |
| 121 (PNVNPWHNPRQGGF) [compound 121] | 48% |
| 124 (FYNEGDAPVVAL) [compound 124] | 15% |
| 146 (VFIDHPSFLEK) [compound 146] | 80% |
| 158 (NNQRNFLAGDEDNVISQIQRPVKE) [compound 158] | 21% |
| 181 (DLAIPVNRPGQLQS) [compound 181] | 33% |
| 222 (DDEEEEQGEEEINK) [compound 222] | 110% |
| 226 (KEDDEEEEQGEEEINK) [compound 226] | 30% |
| 247 (LVDLVIPVNGPGKFEAFDLAK) [compound 247] | 28% |
| 248 (DNVISQIENPVKE) [compound 248] | 86% |
| 249 (VVIIPAGHPVAITASSNLNLLGFG) [compound 249] | 30% |
| 252 (VIPVNGPGKF) [compound 252] | 111% |
| 253 (SKKSLPSE) [compound 253] | 112% |

| Substance | INCREASE IN PROLIFERATION |
| --- | --- |
| 256 (IPVNGPGKF) [compound 256] | 117% |
| 257 (LPQHIDADL) [compound 257] | 118% |
| 270 (HGEWRPSYEKQEDEEEK) [compound 270] | 47% |
| 272 (PSYEKEEDEEEGQR) [compound 272] | 97% |
| 285 (VVIIPAGHPVA) [compound 285] | 81% |
| 330 (NKNQYLRGFS) [compound 330] | 18% |
| 337 (NKNQYLRGFSKNILE) [compound 337] | 8% |
| 341 (RGDTIKLPAGTTSYLVNQDDEE) [compound 341] | 83% |
| 359 (GTSSVINNLPLDVVAATFNLQRNE) [compound 359] | 15% |
| 365 (AGTSSVINNLPLDV) [compound 365] | 58% |
| 403 (HPVAVRASSNLNLLGFGINAE) [compound 403] | 51% |
| 410 (TLFLPQYTDADFILVVLSGK) [compound 410] | 73% |
| 452 (YYGEQQQQPGMTR) [compound 452] | 76% |
| 453 (SYEESMPMPLEQGWSSSSSE) [compound 453] | 25% |
| 454 (YYGEGSSEEGYYGEQQQQPGMTR) [compound 454] | 38% |
| 455 (QQQQPGMTRV) [compound 455] | 47% |
| 457 (SYEESMPMPLEQGWSSSSSEY) [compound 457] | 114% |
| 460 (GEGSSEEGYYGEQQQQPGMTR) [compound 460] | 38% |
| 461 (YGEGSSEEGYYGEQQQQPGMTR) [compound 461] | 85% |
| 462 (QQQQPGMTRVR) [compound 462] | 15% |
| 463 (QYAAQLPSMCRVEPQQCSIFAAGQY) [compound 463] | 100% |
| 464 (TVFNGVLRPGQL) [compound 464] | 18% |
| 465 (TVFNGVLRPGQLL) [compound 465] | 96% |

| Substance | INCREASE IN PROLIFERATION |
| --- | --- |
| 467 (NGVLRPGQL) [compound 467] | 90% |
| 468 (ALVAKRLQGQNDQRGEI) [compound 468] | 82% |
| 470 (PRYSNTPGMV) [compound 470] | 119% |
| 471 (YSNTPGMVY) [compound 471] | 38% |
| 472 (LVPRYSNTPGM) [compound 472] | 77% |
| 473 (FYNEGDAPVV) [compound 473] | 41% |
| 474 (FYNEGDAPVVAL) [compound 474] | 121% |
| 477 (FYNEGDAPVVA) [compound 477] | 81% |
| 478 (EVEERSQNIF) [compound 478] | 76% |
| 479 (VEERSQNIFSGF) [compound 479] | 106% |
| 480 (ASLQEQEQGQVQ) [compound 480] | 102% |
| 482 (ASLQEQEQGQVQSR) [compound 482] | 113% |
| 495 (SGFSTELLSEALGVSSQVAR) [compound 495] | 68% |
| 496 (GAFTPLQYKSYQD) [compound 496] | 51% and 81% |
| 497 (GLLLPHYTNGASLVY) [compound 497] | 58% |
| 499 (ALPTDVLANAYR) [compound 499] | 113% |
| 500 (DFLLAGNK) [compound 500] | 6% |
| 501 (DVLANAYR) [compound 501] | 43% |
| 502 (GAFTPLQYK) [compound 502] | 68% |
| 503 (QGDVIALPAGVAHW) [compound 503] | 125% |
| 504 (FGAFTPLQYKSY) [compound 504] | 119% |
| 505 (FLLAGNKRNPQAYR) [compound 505] | 118% |
